# Results as given in patent EP0326331B1, “Substituted quinolines and cinnolines” (Dow AgroSciences LLC, priority 1988, dated 1989).
# Read-outs that look alike come from different tables or passages of the source.
# Columns and labels:
# Type in all cases: in vivo
# [1] = tested on: Erysiphe graminis tritici (powdery mildew); test: Test 1 greenhouse foliar spray screen, powdery mildew on wheat; conditions: for POWD MDEW: disease control rating, foliar spray on wheat, 400 ppm (+++ at 100 ppm); for pest or weed control at 400 ppm: Blumeria graminis, foliar, Test 1, foliar spray on wheat, disease control rating at 400 ppm / 100 ppm, read-out: POWD MDEW
# [2] = tested on: Pyricularia oryzae (rice blast); test: whole plant or invertebrate; conditions: for RICE BLAST: disease control rating, foliar spray on rice, 400 ppm (+++ at 100 ppm); for pest or weed control at 400 ppm: Pyricularia oryzae, foliar, read-out: RICE BLAST, Test 1, foliar spray on rice, disease control rating at 400 ppm / 100 ppm
# [3] = tested on: Puccinia recondita tritici (leaf rust); test: Test 1 greenhouse foliar spray screen, leaf rust on wheat; conditions: for LEAF RUST: disease control rating, foliar spray on wheat, 400 ppm (+++ at 100 ppm); for pest or weed control at 400 ppm: Puccinia recondita, foliar, Test 1, foliar spray on wheat, disease control rating at 400 ppm / 100 ppm
# [4] = tested on: Botrytis cinerea (gray mold); test: Test 1 greenhouse foliar spray screen, gray mold on grape berries; conditions: for GRAY MOLD: disease control rating, spray on grape berries, 400 ppm (+++ at 100 ppm); for pest or weed control at 400 ppm: Botrytis cinerea, foliar, Test 1, spray on grape berries, disease control rating at 400 ppm / 100 ppm
# [5] = tested on: Pseudoperonospora cubensis (downy mildew); test: Test 1 greenhouse foliar spray screen, downy mildew on squash; conditions: for DOWN MDEW: disease control rating, foliar spray on squash, 400 ppm (+++ at 100 ppm); for pest or weed control at 400 ppm: Pseudoperonospora cubensis, foliar, Test 1, foliar spray on squash, disease control rating at 400 ppm / 100 ppm, read-out: DOWN MDEW
# [6] = tested on: Cercospora beticola (leaf spot); test: Test 1 greenhouse foliar spray screen, leaf spot on sugar beet; conditions: for LEAF SPOT: disease control rating, foliar spray on sugar beet, 400 ppm (+++ at 100 ppm); for pest or weed control at 400 ppm: Cercospora beticola, Test 1, foliar spray on sugar beet, disease control rating at 400 ppm / 100 ppm
# [7] = tested on: Venturia inaequalis (apple scab); test: Test 1 greenhouse foliar spray screen, apple scab on apple seedling; conditions: for APPL SCAB: disease control rating, foliar spray on apple seedling, 400 ppm (+++ at 100 ppm); for pest or weed control at 400 ppm: Venturia inaequalis, Test 1, foliar spray on apple seedling, disease control rating at 400 ppm / 100 ppm, read-out: APPL SCAB
# [8] = tested on: Septoria tritici (leaf blotch); test: Test 1 greenhouse foliar spray screen, leaf blotch on wheat; conditions: for LEAF BLOT: disease control rating, foliar spray on wheat, 400 ppm (+++ at 100 ppm); for pest or weed control at 400 ppm: Zymoseptoria tritici, Test 1, foliar spray on wheat, disease control rating at 400 ppm / 100 ppm, read-out: LEAF BLOT
# [9] = tested on: southern armyworm (Spodopetra eridania Cramer); test: Mite/insect screen, SAW; conditions: percent mortality; for mortality at 200 ppm / mortality at 400 ppm: Spodoptera eridania, read-out: SAW RESULTS %
# Method in brief: (§1)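 Activity is expressed as percent mortality at the indicated spray concentrations. Plants are sprayed to runoff on upper and lower leaf surfaces with aqueous dilutions of an acetone/alcohol emulsifiable formulation, then dried for one hour.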
# [10] = tested on: Twospotted spider mites (Tetranychus urticae Koch); test: Mite/insect screen, SM; conditions: for mortality at 200 ppm / mortality at 400 ppm: Tetranychus urticae, read-out: SM RESULTS %; for activity as miticides: summary statement in the description
# Method in brief: as §1
# [11] = tested on: melon aphids (Aphis gossypii Glover); test: Mite/insect screen, MA; conditions: percent mortality; for mortality at 200 ppm / mortality at 400 ppm: Aphis gossypii, read-out: MA RESULTS %
# Method in brief: as §1
# corn rootworm = test: Mite/insect screen, CRW; conditions: percent mortality; for mortality at 12 ppm / mortality at 24 ppm: read-out: CRW RESULTS %
# Method in brief: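 Each compound, taken up in an emulsifier-containing acetone/alcohol mixture and diluted in water to the stated concentrations, was assessed for percent kill following standard exposure times.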
# [12] = percent mortality, SAW, SM & MA RATE 200 PPM
# [13] = foliar, rate 200 ppm, foliar spray on squash
# [14] = foliar, percent mortality, rate 200 ppm, foliar spray on squash
# [15] = foliar, rate 400 ppm, foliar spray on squash
# [16] = foliar, percent mortality, rate 400 ppm, foliar spray on squash
SMILES,POWD MDEW [1],RICE BLAST [2],LEAF RUST [3],GRAY MOLD [4],DOWN MDEW [5],LEAF SPOT [6],APPL SCAB [7],LEAF BLOT [8],"mortality at 200 ppm ([9]; SAW, SM & MA RATE 200 PPM)","mortality at 200 ppm [10, 12]","mortality at 200 ppm ([11]; SAW, SM & MA RATE 200 PPM)",mortality at 12 ppm (corn rootworm; CRW RATE 12.00 PPM),pest or weed control at 400 ppm [1],pest or weed control at 400 ppm [2],pest or weed control at 400 ppm [3],pest or weed control at 400 ppm [4],pest or weed control at 400 ppm [5],pest or weed control at 400 ppm [6],pest or weed control at 400 ppm [7],pest or weed control at 400 ppm [8],other results
"CC(CNc1ccnc2c(F)cccc12)(c1ccccc1)c1ccccc1 [Example 80, N-(2,2-diphenylpropyl)-8-fluoro-4-quinolinamine]",+ (20-89% control at 400 ppm),++ (90-100% control at 400 ppm),++ (90-100% control at 400 ppm),- (0-19% control at 400 ppm),+++ (90-100% control at 100 ppm),+ (20-89% control at 400 ppm),- (0-19% control at 400 ppm),- (0-19% control at 400 ppm),0%,0%,0%,0%,,,,,,,,,
"Cc1ccc(CCOc2ccnc3c(OCCc4ccc(C)cc4)cccc23)cc1 [Example 251, 4,8-bis[2-(4-methylphenyl)ethoxy]quinoline]",,,,,,,,,,,,,0 to 19%,20 to 89%,0 to 19%,0 to 19%,20 to 89%,0 to 19%,0 to 19%,0 to 19%,"mortality at 200 ppm [9, 13]: 0%; mortality at 200 ppm [10, 14]: 0%; mortality at 200 ppm [11, 13]: 0%; mortality at 12 ppm (corn rootworm; CRW rate 12.00 ppm): 0%"
"Fc1cccc2c(NCCc3ccc(Cl)s3)ccnc12 [Example 163, N-[2-(5-chloro-2-thienyl)ethyl]-8-fluoro-4-quinolinamine]",++ (90-100% control at 400 ppm),+ (20-89% control at 400 ppm),+++ (90-100% control at 100 ppm),- (0-19% control at 400 ppm),++ (90-100% control at 400 ppm),+++ (90-100% control at 100 ppm),- (0-19% control at 400 ppm),- (0-19% control at 400 ppm),0%,0%,0%,0%,,,,,,,,,
"Cc1ccc(CCCc2ccnc3c(F)cccc23)cc1 [Example 258, 8-fluoro-4-[3-(4-methylphenyl)propyl]quinoline]",,,,,,,,,,,,,90 to 100%,90 to 100%,90 to 100%,0 to 19%,90 to 100%,20 to 89%,0 to 19%,20 to 89%,"mortality at 400 ppm [9, 15]: 0%; mortality at 400 ppm [10, 16]: 90%; activity as miticides [10]: particularly excellent activity; mortality at 400 ppm [11, 15]: 100%; mortality at 24 ppm (corn rootworm; CRW rate 24.00 ppm): 0%"
"Fc1cccc2c(NCCc3ccccc3)cc(Cl)nc12 [Example 116, 2-chloro-8-fluoro-N-(2-phenylethyl)-4-quinolinamine]",- (0-19% control at 400 ppm),+ (20-89% control at 400 ppm),+++ (90-100% control at 100 ppm),- (0-19% control at 400 ppm),+++ (90-100% control at 100 ppm),+ (20-89% control at 400 ppm),+ (20-89% control at 400 ppm),- (0-19% control at 400 ppm),0%,0%,0%,0%,,,,,,,,,
"Clc1ccc2c(NCCc3ccc4ccccc4c3)ccnc2c1 [Example 166, 7-chloro-N-[2-(2-naphthyl)ethyl]-4-quinolinamine]",+ (20-89% control at 400 ppm),+ (20-89% control at 400 ppm),+ (20-89% control at 400 ppm),- (0-19% control at 400 ppm),+++ (90-100% control at 100 ppm),- (0-19% control at 400 ppm),- (0-19% control at 400 ppm),+ (20-89% control at 400 ppm),,,,,,,,,,,,,"mortality at 200 ppm [9, 13]: 0%; mortality at 400 ppm [9, 15]: 0%; mortality at 200 ppm [10, 14]: 0%; mortality at 400 ppm [10, 16]: 0%; mortality at 200 ppm [11, 13]: 0%; mortality at 400 ppm [11, 15]: 0%; mortality at 12 ppm (corn rootworm; CRW rate 12.00 ppm): 0%; mortality at 24 ppm (corn rootworm; CRW rate 24.00 ppm): 0%"
"Fc1cccc(Cl)c1CCNc1ccnc2c(F)cccc12 [Example 103, N-[2-(2-chloro-6-fluorophenyl)ethyl]-8-fluoro-4-quinolinamine]",+ (20-89% control at 400 ppm),++ (90-100% control at 400 ppm),++ (90-100% control at 400 ppm),- (0-19% control at 400 ppm),+++ (90-100% control at 100 ppm),+ (20-89% control at 400 ppm),+++ (90-100% control at 100 ppm),+ (20-89% control at 400 ppm),0%,0%,0%,0%,,,,,,,,,"mortality at 400 ppm ([9]; SAW, SM & MA RATE 400 PPM): 0%; mortality at 400 ppm ([10]; percent mortality, SAW, SM & MA RATE 400 PPM): 0%; mortality at 400 ppm ([11]; SAW, SM & MA RATE 400 PPM): 0%; mortality at 24 ppm (corn rootworm; CRW RATE 24.00 PPM): 0%"
"Fc1cccc2c(CCCc3ccccc3)ccnc12 [Example 253, 8-fluoro-4-(3-phenylpropyl)quinoline]",,,,,,,,,,,,,90 to 100%,90 to 100%,90 to 100%,0 to 19%,90 to 100%,20 to 89%,90 to 100%,20 to 89%,"mortality at 200 ppm [9, 13]: 0%; mortality at 400 ppm [9, 15]: 0%; mortality at 200 ppm [10, 14]: 100%; mortality at 400 ppm [10, 16]: 100%; activity as miticides [10]: particularly excellent activity; mortality at 200 ppm [11, 13]: 90%; mortality at 400 ppm [11, 15]: 100%; mortality at 12 ppm (corn rootworm; CRW rate 12.00 ppm): 0%; mortality at 24 ppm (corn rootworm; CRW rate 24.00 ppm): 0%"
"Fc1cccc2c(NCCc3cccc(C(F)(F)F)c3)ccnc12 [Example 95, 8-fluoro-N-[2-[3-(trifluoromethyl)phenyl]ethyl]-4-quinolinamine]",+ (20-89% control at 400 ppm),++ (90-100% control at 400 ppm),+++ (90-100% control at 100 ppm),+ (20-89% control at 400 ppm),+++ (90-100% control at 100 ppm),+ (20-89% control at 400 ppm),+ (20-89% control at 400 ppm),+++ (90-100% control at 100 ppm),20%,0%,0%,0%,,,,,,,,,"activity against downy mildew ([5]; summary statement in the description): particularly excellent activity; SAW RESULTS % ([9]; SAW, SM & MA RATE 200 PPM): 40%; SM RESULTS % [10, 12]: 0%; MA RESULTS % ([11]; SAW, SM & MA RATE 200 PPM): 0%; CRW RESULTS % (corn rootworm; CRW RATE 12.00 PPM): 0%"
